Where two headings read alike, the source gives them in different places.
Test system: Human whole blood IFN-γ
Assay: Assay 10: Human Whole Blood IFN-γ Assay
Assay type: cell-based
Conditions: anti-CD3 and anti-CD28 stimulation, 100% = 3 μM reference compound, read-out: INFg Whole Blood Normalized Agonist EC50
Protocol: Assay 10: Human Whole Blood IFN-γ Assay
Human venous whole blood (22.5 μL per well), obtained from healthy donors, was pre-treated with compounds for one hour at 37° C. in a humidified 95% air/5% CO2 incubator. The blood was stimulated with 2.5 μL anti-human CD3 and anti-CD28 mAb at a final concentration of 1 μg/mL each for 24 hours at 37° C. IFN-7 in the supernatants was measured using AlphLISA kit (Cat #AL217).

SMILES | EC50 (Homo sapiens, 24 h) | EC50 (24 hours)
C[C@@H]1CN(c2cc(=O)n(C)c3ccc(C#N)nc23)[C@@H](C)CN1C(C(=O)NCCO)c1ccc(F)cc1 (stereo partly drawn) [Example 27, 2-((2R,5S)-4-(6-cyano-1-methyl-2-oxo-1,2-dihydro-1,5-naphthyridin-4-yl)-2,5-dimethylpiperazin-1-yl)-2-(4-fluorophenyl)-N-(2-hydroxyethyl)acetamide] | 1.54 µM | –
C[C@@H]1CN(c2cc(=O)n(C)c3ccc(C#N)nc23)[C@@H](C)CN1C(C(=O)N(C)C)c1ccc(F)cc1 (stereo partly drawn) [Example 23, 2-((2R,5S)-4-(6-cyano-1-methyl-2-oxo-1,2-dihydro-1,5-naphthyridin-4-yl)-2,5-dimethylpiperazin-1-yl)-2-(4-fluorophenyl)-N,N-dimethylacetamide] | 20 µM | –
C[C@@H]1CN(c2cc(=O)n(C)c3ccc(C#N)nc23)[C@@H](C)CN1C(C(=O)N1CCCC1)c1ccc(F)cc1 (stereo partly drawn) [Example 22, 8-((2S,5R)-4-(1-(4-fluorophenyl)-2-oxo-2-(pyrrolidin-1-yl)ethyl)-2,5-dimethylpiperazin-1-yl)-5-methyl-6-oxo-5,6-dihydro-1,5-naphthyridine-2-carbonitrile] | – | 9.03 µM
C[C@@H]1CN(c2cc(=O)n(C)c3ccc(C#N)nc23)[C@@H](C)CN1C(c1ccc(F)cc1)P(C)(C)=O (single isomer, unassigned) [Example 49] | 20 µM | –
CC(C(=O)NC1CC1)N1C[C@H](C)N(c2cc(=O)n(C)c3ccc(C#N)nc23)C[C@H]1C (stereo partly drawn) [Example 47, 2-((2R,5S)-4-(6-cyano-1-methyl-2-oxo-1,2-dihydro-1,5-naphthyridin-4-yl)-2,5-dimethylpiperazin-1-yl)-N-cyclopropylpropanamide] | 20 µM | –
CC(C(=O)Nc1cnn(C)c1)N1C[C@H](C)N(c2cc(=O)n(C)c3ccc(C#N)nc23)C[C@H]1C (stereo partly drawn) [Example 45, 2-((2R,5S)-4-(6-cyano-1-methyl-2-oxo-1,2-dihydro-1,5-naphthyridin-4-yl)-2,5-dimethylpiperazin-1-yl)-N-(1-methyl-1H-pyrazol-4-yl)propanamide] | 20 µM | –
COC(=O)CC(c1ccc(F)cc1)N1C[C@H](C)N(c2cc(=O)n(C)c3ccc(C#N)nc23)C[C@H]1C (single isomer, unassigned) [Example 31] | – | 0.15 µM
C[C@@H]1CN(c2cc(=O)n(C)c3ccc(C#N)nc23)[C@@H](C)CN1C(C(N)=O)c1ccc(F)cc1 (stereo partly drawn) [Example 14, 2-((2R,5S)-4-(6-cyano-1-methyl-2-oxo-1,2-dihydro-1,5-naphthyridin-4-yl)-2,5-dimethylpiperazin-1-yl)-2-(4-fluorophenyl)acetamide] | – | 20 µM
C[C@@H]1CN(c2cc(=O)n(C)c3ccc(C#N)nc23)[C@@H](C)CN1C(c1ccc(F)cc1)P(C)(C)=O (single isomer, unassigned) [Example 50] | – | 20 µM
CC(C(=O)NC1CC1)N1C[C@H](C)N(c2cc(=O)n(C)c3ccc(C#N)nc23)C[C@H]1C (stereo partly drawn) [Example 48, 2-((2R,5S)-4-(6-cyano-1-methyl-2-oxo-1,2-dihydro-1,5-naphthyridin-4-yl)-2,5-dimethylpiperazin-1-yl)-N-cyclopropylpropanamide] | – | 20 µM
CC(C)OC(=O)C(c1ccc(F)cc1)N1C[C@H](C)N(c2cc(=O)n(C)c3ccc(C#N)nc23)C[C@H]1C (single isomer, unassigned) [Example 1] | – | 0.61 µM
CNC(=O)C(c1ccc(F)cc1)N1C[C@H](C)N(c2cc(=O)n(C)c3ccc(C#N)nc23)C[C@H]1C (stereo partly drawn) [Example 25, 2-((2R,5S)-4-(6-cyano-1-methyl-2-oxo-1,2-dihydro-1,5-naphthyridin-4-yl)-2,5-dimethylpiperazin-1-yl)-2-(4-fluorophenyl)-N-methylacetamide] | – | 5.12 µM
CC(C(=O)Nc1cnn(C)c1)N1C[C@H](C)N(c2cc(=O)n(C)c3ccc(C#N)nc23)C[C@H]1C (stereo partly drawn) [Example 46, 2-((2R,5S)-4-(6-cyano-1-methyl-2-oxo-1,2-dihydro-1,5-naphthyridin-4-yl)-2,5-dimethylpiperazin-1-yl)-N-(1-methyl-1H-pyrazol-4-yl)propanamide] | – | 20 µM

Source: patent US12454531B2, “Substituted piperazine derivatives useful as T cell activators” (BRISTOL-MYERS SQUIBB COMPANY, priority 2019, dated 2025)
